# Patent US9573987B2 (priority 2011, dated 2017)
# Several values for one entry are separate records, joined by “and”; a condition that tells them apart may be missing. Equal values may be shown once. *1 amine or outer side, *2 acyl side, *3 side chain or, on linkers, in order; H or OH if unused. Where a SMILES comes first, the peptide text is derived from it. Side-chain parts run from the residue outwards. [ ]: non-standard residue; d: D form. The star is where a group is joined. Phe(4-NH2) = Nc1ccc(C[C@H](N)C(=O)O)cc1; d(εLys) = N[C@H](CCCCN[*:1])C(=O)[*:2]; εLys = N[C@@H](CCCCN[*:1])C(=O)[*:2]; Isobutyryl(2-OH) = CC(C)(O)C(=O)*; NMeA = CN[C@@H](C)C(=O)O; Sar = CNCC(=O)O
# Assays:
# [1] = Dipeptide half life on IGF1 (p-NH2-F)A19 analogs in PBS; format: physicochemical; settings: buffer
# Experimental: Accordingly, the IGF1A chain alone was determined to be a good model for the study of pro-drug half life on IGF1 B:A (Y^B16L^B17) analog peptides. […] For simplicity, prodrug half lives were determined using only the IGF1 A chain in the absence of the B chain. The half lives of each propeptide was determined as described in Example 5.
# [2] = target: T1, insulin receptor (Homo sapiens, UniProt P06213); assay: Insulin receptor phosphorylation assay, receptor transfected HEK293 cells; format: cell-based; parameters: expressed in transfected cells; host or cells: HEK293; settings: for in vitro phosphorylation activity at the insulin receptor (result in words): FIGS. 22A, 22B
# Experimental: (§1) Color development was stopped 5 min later by adding 0.05 ml 1 N HCl. Absorbance at 450 nm was measured on Titertek Multiscan MCC340 (ThermoFisher, Pittsburgh, Pa.).
# [3] = target: T1, insulin receptor; assay: Insulin receptor binding assay (competition, scintillation proximity); parameters: expressed in transfected cells; plasma membrane fragments
# [4] = target: T2, IGF-1 receptor (Homo sapiens, UniProt P08069); assay: IGF-1 receptor binding assay (competition, scintillation proximity); parameters: expressed in transfected cells; plasma membrane fragments; settings: Table 9
# T2 sequence (P08069 31-736 limits assumed): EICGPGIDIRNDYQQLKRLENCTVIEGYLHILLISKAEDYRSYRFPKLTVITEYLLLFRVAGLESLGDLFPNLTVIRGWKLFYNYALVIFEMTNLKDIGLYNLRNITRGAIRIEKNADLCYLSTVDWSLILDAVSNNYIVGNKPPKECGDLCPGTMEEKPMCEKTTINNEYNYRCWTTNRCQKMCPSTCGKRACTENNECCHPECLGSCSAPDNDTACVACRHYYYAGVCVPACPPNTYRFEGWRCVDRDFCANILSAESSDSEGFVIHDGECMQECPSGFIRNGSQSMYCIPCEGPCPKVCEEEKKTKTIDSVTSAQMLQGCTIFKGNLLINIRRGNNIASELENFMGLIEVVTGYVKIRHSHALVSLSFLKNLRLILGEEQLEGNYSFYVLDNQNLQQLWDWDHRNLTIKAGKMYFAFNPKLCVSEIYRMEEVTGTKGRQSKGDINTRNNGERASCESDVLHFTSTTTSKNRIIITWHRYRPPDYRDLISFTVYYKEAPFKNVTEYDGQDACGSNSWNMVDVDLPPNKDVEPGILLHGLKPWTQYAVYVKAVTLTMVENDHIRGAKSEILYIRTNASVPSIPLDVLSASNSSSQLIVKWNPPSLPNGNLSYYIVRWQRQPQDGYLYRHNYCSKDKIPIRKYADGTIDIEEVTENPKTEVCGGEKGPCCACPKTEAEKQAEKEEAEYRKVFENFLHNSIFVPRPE
# T2 sequence (P08069 741-1367 partner limits assumed): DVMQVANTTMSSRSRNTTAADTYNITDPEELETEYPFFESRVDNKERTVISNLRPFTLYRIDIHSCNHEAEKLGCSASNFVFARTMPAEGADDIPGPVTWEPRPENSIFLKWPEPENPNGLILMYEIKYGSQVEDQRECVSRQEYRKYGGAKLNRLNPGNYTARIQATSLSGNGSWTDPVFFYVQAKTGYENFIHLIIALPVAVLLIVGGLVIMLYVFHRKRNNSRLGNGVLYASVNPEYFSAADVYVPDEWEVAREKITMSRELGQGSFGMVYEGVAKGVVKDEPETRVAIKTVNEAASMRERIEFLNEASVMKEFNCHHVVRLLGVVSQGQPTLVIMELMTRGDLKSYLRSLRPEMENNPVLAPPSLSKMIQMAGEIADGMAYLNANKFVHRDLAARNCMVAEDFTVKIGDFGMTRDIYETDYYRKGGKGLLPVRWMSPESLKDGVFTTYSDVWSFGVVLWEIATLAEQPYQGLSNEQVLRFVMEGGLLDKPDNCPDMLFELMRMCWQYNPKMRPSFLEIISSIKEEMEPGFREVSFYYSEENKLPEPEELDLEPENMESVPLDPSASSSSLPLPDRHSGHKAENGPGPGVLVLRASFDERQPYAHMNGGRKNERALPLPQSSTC
# [5] = target: T2, IGF-1 receptor; assay: IGF-1 receptor phosphorylation assay, receptor transfected HEK293 cells; format: cell-based; parameters: expressed in transfected cells; host or cells: HEK293
# Experimental: as §1
Molecule,half-life ([1]; Half Life (hr)) [h],half-life ([1]; Half Life (hr) PBS) [h],in vitro phosphorylation activity at the insulin receptor (result in words) [2],further results
CC[C@H](C)[C@H](NC(=O)CN)C(=O)N[C@H](C(=O)N[C@@H](CC(=O)O)C(=O)N[C@@H](CCC(=O)O)C(=O)N[C@H]1CSSC[C@@H]2NC(=O)[C@H](CO)NC(=O)[C@H](CCCNC(=N)N)NC(=O)[C@H](Cc3ccccc3)NC(=O)[C@H](CSSC[C@H](NC(=O)[C@H](CC(C)C)NC(=O)[C@@H](NC(=O)[C@H](CCC(=O)O)NC(=O)[C@@H]3CCCN3C(=O)CN)[C@@H](C)O)C(=O)NCC(=O)N[C@@H](C)C(=O)N[C@@H](CCC(=O)O)C(=O)N[C@@H](CC(C)C)C(=O)N[C@@H](C(C)C)C(=O)N[C@@H](CC(=O)O)C(=O)N[C@@H](C)C(=O)N[C@@H](CC(C)C)C(=O)N[C@@H](Cc3ccc(O)cc3)C(=O)N[C@@H](CC(C)C)C(=O)N[C@@H](C(C)C)C(=O)N[C@H](C(=O)NCC(=O)N[C@@H](CC(=O)O)C(=O)N[C@@H](CCCNC(=N)N)C(=O)NCC(=O)N[C@@H](Cc3ccccc3)C(=O)N[C@@H](Cc3ccc(O)cc3)C(=O)N[C@@H](Cc3ccccc3)C(=O)N[C@@H](CC(N)=O)C(=O)N[C@@H](CCCCN)C(=O)N3CCC[C@H]3C(=O)N[C@H](C(=O)N[C@@H](CCC(=O)O)C(=O)N[C@@H](CCC(=O)O)C(=O)O)[C@@H](C)O)CSSC[C@@H](C(=O)N[C@@H](C)C(N)=O)NC(=O)[C@H](Cc3ccc(O)cc3)NC(=O)[C@H](CCSC)NC(=O)[C@H](CCC(=O)O)NC(=O)[C@H](CC(C)C)NC(=O)[C@H](CCCNC(=N)N)NC(=O)[C@H](CCCNC(=N)N)NC(=O)[C@H](CC(C)C)NC(=O)[C@H](CC(=O)O)NC2=O)NC1=O)C(C)C [IGF-1 A:B(E10 Y16L17)-E31E3 2B-COOH],,,,"EC50 ([2]; Insulin Receptor EC50:, total phosphorylation, Table 10): 7 nM and 8.52 nM; Insulin Receptor % Insulin ([2]; Table 10): 18.1% and 31.7%; Ratio ([3]; IGF-1 receptor IC50 over insulin receptor IC50): 14.3; Insulin Receptor % insulin (in test) ([3]; Table 9): 36.5%; Insulin Receptor % native insulin activity (0.6 nM) ([3]; Table 9): 50.0%; IGF-1 Receptor % IGF-1 (in test) [4]: 3.0%"
CC[C@H](C)[C@H](NC(=O)CN)C(=O)N[C@H](C(=O)N[C@@H](CC(=O)O)C(=O)N[C@@H](CCC(=O)O)C(=O)N[C@@H](C)C(=O)N[C@@H](C)C(=O)N[C@@H](Cc1ccccc1)C(=O)N[C@@H](CCCNC(=N)N)C(=O)N[C@@H](CO)C(=O)N[C@@H](C)C(=O)N[C@@H](CC(=O)O)C(=O)N[C@@H](CC(C)C)C(=O)N[C@@H](CCCNC(=N)N)C(=O)N[C@@H](CCCNC(=N)N)C(=O)N[C@@H](CC(C)C)C(=O)N[C@@H](CCC(=O)O)C(=O)N[C@@H](CCSC)C(=O)N[C@@H](Cc1ccc(NC(=O)[C@@H]2CCCN2C(=O)C(C)(C)O)cc1)C(=O)N[C@@H](C)C(=O)N[C@@H](C)C(N)=O)C(C)C [AiBOH Pro] (H-GIVDEAAFRSADLRRLEM[Phe(4-NH2)]([Pro-Isobutyryl(2-OH)])AA-NH2; N-terminus assumed),165,165,,
CC[C@H](C)[C@H](NC(=O)CN)C(=O)N[C@H](C(=O)N[C@@H](CC(=O)O)C(=O)N[C@@H](CCC(=O)O)C(=O)N[C@@H](C)C(=O)N[C@@H](C)C(=O)N[C@@H](Cc1ccccc1)C(=O)N[C@@H](CCCNC(=N)N)C(=O)N[C@@H](CO)C(=O)N[C@@H](C)C(=O)N[C@@H](CC(=O)O)C(=O)N[C@@H](CC(C)C)C(=O)N[C@@H](CCCNC(=N)N)C(=O)N[C@@H](CCCNC(=N)N)C(=O)N[C@@H](CC(C)C)C(=O)N[C@@H](CCC(=O)O)C(=O)N[C@@H](CCSC)C(=O)N[C@@H](Cc1ccc(NC(=O)CN(C)C(=O)C(C)(C)O)cc1)C(=O)N[C@@H](C)C(=O)N[C@@H](C)C(N)=O)C(C)C [AiBOH Sar] (H-GIVDEAAFRSADLRRLEM[Phe(4-NH2)]([Sar-Isobutyryl(2-OH)])AA-NH2; N-terminus assumed),2.3,2.3,,
CC[C@H](C)[C@H](NC(=O)CN)C(=O)N[C@H](C(=O)N[C@@H](CC(=O)O)C(=O)N[C@@H](CCC(=O)O)C(=O)N[C@H]1CSSC[C@@H]2NC(=O)[C@H](CO)NC(=O)[C@H](C)NC(=O)[C@H](Cc3c[nH]cn3)NC(=O)[C@H](CSSC[C@H](NC(=O)[C@H](CC(C)C)NC(=O)[C@H](Cc3c[nH]cn3)NC(=O)[C@H](CCC(=O)O)NC(=O)[C@@H]3CCCN3C(=O)CN)C(=O)NCC(=O)N[C@@H](C)C(=O)N[C@@H](CC(=O)O)C(=O)N[C@@H](CC(C)C)C(=O)N[C@@H](C(C)C)C(=O)N[C@@H](CC(=O)O)C(=O)N[C@@H](C)C(=O)N[C@@H](CC(C)C)C(=O)N[C@@H](Cc3ccc(O)cc3)C(=O)N[C@@H](CC(C)C)C(=O)N[C@@H](C(C)C)C(=O)N[C@H](C(=O)NCC(=O)N[C@@H](CC(=O)O)C(=O)N[C@@H](C)C(=O)NCC(=O)N[C@@H](Cc3ccccc3)C(=O)N[C@@H](Cc3ccc(O)cc3)C(N)=O)CSSC[C@@H](C(=O)N[C@@H](CC(N)=O)C(=O)O)NC(=O)[C@H](Cc3ccc(O)cc3)NC(=O)[C@H](CCSC)NC(=O)[C@H](CCC(=O)O)NC(=O)[C@H](CC(C)C)NC(=O)[C@H](CCCNC(=N)N)NC(=O)[C@H](CCCNC(=N)N)NC(=O)[C@H](CC(C)C)NC(=O)[C@H](CC(=O)O)NC2=O)NC1=O)C(C)C,,,,EC50 [5]: 11.3 nM; IGF-1 Receptor % IGF ([5]; Table 10): 7.7%; Insulin Receptor % insulin (in test) ([3]; Table 9): 1171.4%; IGF-1 Receptor % IGF-1 (in test) [4]: 2.3%
"DP20 C^0CTP: native proinsulin C peptide linked to a CTP peptide as linking peptide (SEQ ID NO: 74) (protein, listed as Homo sapiens) GEEEEEKGPEHLCGAHLVDALYLVCGDRGFYRREAEDLQVGQVELGGGPGAGSLQPLALEGSLQRKSSSSRAPPPSLPSPSRLPGPSDTPILPQKGIVDECCHRSCDLRRLENYCN",,,appear to have activity at the insulin receptor,
"DP20 CTPC^0: CTP peptide linked to native proinsulin C peptide as linking peptide (SEQ ID NO: 73) (protein, listed as Homo sapiens) GEEEEEKGPEHLCGAHLVDALYLVCGDRGFYSSSSRAPPPSLPSPSRLPGPSDTPILPQKRREAEDLQVGQVELGGGPGAGSLQPLALEGSLQRKGIVDECCHRSCDLRRLENYCN",,,appears more potent than DP20 C^0CTP,
"DP20 2CTP: two end to end linked CTP peptides as the linking peptide (SEQ ID NO: 75) (protein, listed as Homo sapiens) GEEEEEKGPEHLCGAHLVDALYLVCGDRGFYSSSSRAPPPSLPSPSRLPGPSDTPILPQKSSSSRAPPPSLPSPSRLPGPSDTPILPQKGIVDECCHRSCDLRRLENYCN",,,appears to be active as an insulin agonist,

# Now from value to molecule, other results behind:
half-life ([1]; Half Life (hr)) [h],half-life ([1]; Half Life (hr) PBS) [h],Molecule,in vitro phosphorylation activity at the insulin receptor (result in words) [2],further results
16.3,17.2,CC[C@H](C)[C@H](NC(=O)CN)C(=O)N[C@H](C(=O)N[C@@H](CC(=O)O)C(=O)N[C@@H](CCC(=O)O)C(=O)N[C@@H](C)C(=O)N[C@@H](C)C(=O)N[C@@H](Cc1ccccc1)C(=O)N[C@@H](CCCNC(=N)N)C(=O)N[C@@H](CO)C(=O)N[C@@H](C)C(=O)N[C@@H](CC(=O)O)C(=O)N[C@@H](CC(C)C)C(=O)N[C@@H](CCCNC(=N)N)C(=O)N[C@@H](CCCNC(=N)N)C(=O)N[C@@H](CC(C)C)C(=O)N[C@@H](CCC(=O)O)C(=O)N[C@@H](CCSC)C(=O)N[C@@H](Cc1ccc(NC(=O)CN(C)C(=O)[C@H](N)CCCCNC(C)=O)cc1)C(=O)N[C@@H](C)C(=O)N[C@@H](C)C(N)=O)C(C)C [dK(acetyl) Sar] (H-GIVDEAAFRSADLRRLEM[Phe(4-NH2)]([Sar-d(εLys)-Ac])AA-NH2; N-terminus assumed),,
35.3,35.3,CC[C@H](C)[C@H](NC(=O)CN)C(=O)N[C@H](C(=O)N[C@@H](CC(=O)O)C(=O)N[C@@H](CCC(=O)O)C(=O)N[C@@H](C)C(=O)N[C@@H](C)C(=O)N[C@@H](Cc1ccccc1)C(=O)N[C@@H](CCCNC(=N)N)C(=O)N[C@@H](CO)C(=O)N[C@@H](C)C(=O)N[C@@H](CC(=O)O)C(=O)N[C@@H](CC(C)C)C(=O)N[C@@H](CCCNC(=N)N)C(=O)N[C@@H](CCCNC(=N)N)C(=O)N[C@@H](CC(C)C)C(=O)N[C@@H](CCC(=O)O)C(=O)N[C@@H](CCSC)C(=O)N[C@@H](Cc1ccc(NC(=O)[C@H](C)N(C)C(=O)[C@H](N)CCCCNC(C)=O)cc1)C(=O)N[C@@H](C)C(=O)N[C@@H](C)C(N)=O)C(C)C [dK(acetyl) N-methyl Ala] (H-GIVDEAAFRSADLRRLEM[Phe(4-NH2)]([NMeA-d(εLys)-Ac])AA-NH2; N-terminus assumed),,
23.6,23.6,CC[C@H](C)[C@H](NC(=O)CN)C(=O)N[C@H](C(=O)N[C@@H](CC(=O)O)C(=O)N[C@@H](CCC(=O)O)C(=O)N[C@@H](C)C(=O)N[C@@H](C)C(=O)N[C@@H](Cc1ccccc1)C(=O)N[C@@H](CCCNC(=N)N)C(=O)N[C@@H](CO)C(=O)N[C@@H](C)C(=O)N[C@@H](CC(=O)O)C(=O)N[C@@H](CC(C)C)C(=O)N[C@@H](CCCNC(=N)N)C(=O)N[C@@H](CCCNC(=N)N)C(=O)N[C@@H](CC(C)C)C(=O)N[C@@H](CCC(=O)O)C(=O)N[C@@H](CCSC)C(=O)N[C@@H](Cc1ccc(NC(=O)[C@H](C)N(C)C(=O)[C@@H](N)CCCCNC(C)=O)cc1)C(=O)N[C@@H](C)C(=O)N[C@@H](C)C(N)=O)C(C)C [K(acetyl) N-methyl Ala] (H-GIVDEAAFRSADLRRLEM[Phe(4-NH2)]([NMeA-εLys-Ac])AA-NH2; N-terminus assumed),,
